The values that follow come from patent US20250296959A1, “B7-H3 TARGETING PEPTIDES AND CONSTRUCTS THEREOF” (Mariana Oncology Inc., priority 2024, published 2025).

Each structure is given as a SMILES string. pKd: −log10 of the molar value. Starred links: 1 amine or outer side, 2 acyl side, 3 side chain; linkers in the order of their positions; H or OH if unused. Positions of bridges follow the written chain, without caps; N, C: chain ends. Non-standard residues stand in square brackets, D forms with d. Residues, ends and D or L forms follow the SMILES beside them. Groups on a side chain read outwards from the residue. *: point of attachment. Ala(1-CH2CO2H-4-piperidyl) = N[C@@H](CC1CCN(CC(=O)O)CC1)C(=O)O; Ala(piperidin-4-yl) = O=C([C@H](CC1CCN([*:3])CC1)N[*:1])[*:2]; DOTA = O=C(O)CN1CCN(CC(=O)O)CCN(CC(=O)*)CCN(CC(=O)O)CC1; Phe(4-COOH) = N[C@@H](Cc1ccc(C(=O)O)cc1)C(=O)O; Trp(5-F) = N[C@@H](Cc1c[nH]c2ccc(F)cc12)C(=O)O; γGlu = O=C(O)[C@H](CCC(=O)[*:2])N[*:1]; 1Nal = N[C@@H](Cc1cccc2ccccc12)C(=O)O; Ala(4-THP) = N[C@@H](CC1CCOCC1)C(=O)O; Val(3-OH) = CC(C)(O)[C@H](N)C(=O)O; X14 = CC(C)CC[C@H](NC(N)=O)C(=O)*; hCha = N[C@@H](CCC1CCCCC1)C(=O)O; 4Pal = N[C@@H](Cc1ccncc1)C(=O)O; Cha = N[C@@H](CC1CCCCC1)C(=O)O; Chg = N[C@H](C(=O)O)C1CCCCC1; PEG4 = NCCOCCOCCOCCOCCC(=O)O; Tle = CC(C)(C)[C@H](N)C(=O)O; hLeu = CC(C)CC[C@H](N)C(=O)O; Pip = O=C(O)[C@@H]1CCCCN1; Nle = CCCC[C@H](N)C(=O)O; Nva = CCC[C@H](N)C(=O)O

This test addresses T1, human 4lg B7-H3 (Homo sapiens, UniProt Q5ZPR3).
T1 sequence (Q5ZPR3 29-534): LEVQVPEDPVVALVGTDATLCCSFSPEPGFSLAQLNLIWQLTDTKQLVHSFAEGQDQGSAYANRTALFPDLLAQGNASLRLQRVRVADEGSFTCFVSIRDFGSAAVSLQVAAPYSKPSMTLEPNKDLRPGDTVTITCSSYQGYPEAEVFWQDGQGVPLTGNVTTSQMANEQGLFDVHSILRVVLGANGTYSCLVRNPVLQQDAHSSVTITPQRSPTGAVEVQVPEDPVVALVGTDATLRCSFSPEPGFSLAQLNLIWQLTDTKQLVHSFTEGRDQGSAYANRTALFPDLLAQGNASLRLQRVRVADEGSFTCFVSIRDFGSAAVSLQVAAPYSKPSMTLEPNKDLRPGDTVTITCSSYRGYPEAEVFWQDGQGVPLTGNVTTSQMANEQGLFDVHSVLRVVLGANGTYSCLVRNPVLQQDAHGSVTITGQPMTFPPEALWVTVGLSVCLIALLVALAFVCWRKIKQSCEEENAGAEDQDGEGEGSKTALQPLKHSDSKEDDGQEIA
As to the kind of experiment: Affinity determination by surface plasmon resonance (SPR) to 4Ig B7-H3. Particulars: 4Ig B7-H3.

Where [1] appears, read: SPR KD—37° C., 37° C. flow cell temperature.
Setting [2] is: SPR KD—25° C., 25° C. flow cell temperature.

As a reminder, the pKd is the Kd on a negative log10 scale, so that one unit is a factor of ten. Compound `CC(=O)N[C@@H](CCC(C)C)C(=O)N[C@@H](Cc1ccc(O)cc1)C(=O)N[C@H]1CSSC[C@@H](C(=O)N[C@@H](Cc2c[nH]c3ccc(F)cc23)C(=O)N[C@@H](Cc2ccccc2)C(=O)N[C@H](C(=O)N[C@H](C)C(=O)O)C(C)(C)O)NC(=O)[C@H](Cc2ccc(O)cc2)NC(=O)[C@H](C(C)C)NC(=O)[C@H](CC(=O)O)NC(=O)[C@H](CC2CCN(C(=O)CCOCCOCCOCCOCCNC(=O)CN3CCN(CC(=O)O)CCN(CC(=O)O)CCN(CC(=O)O)CC3)CC2)NC(=O)[C@H](CC2CCN(CC(=O)O)CC2)NC(=O)CNC(=O)[C@H](C(C)(C)C)NC1=O` [compound 488, Ac-hLeu-Y-C-Tbg-G-Pip(CH2COOH)Ala-Pip(PEG4-DOTA)Ala-D-V-Y-C-5FW-F-hydroxyVal-dAla-COOH] (Ac-[hLeu]YC[Tle]G[Ala(1-CH2CO2H-4-piperidyl)][Ala(piperidin-4-yl)]([PEG4-DOTA])DVYC[Trp(5-F)]F[Val(3-OH)][dA]-OH; disulfide 3-11) gave a pKd under setting [1] above 9.00.

For the compound `CCC[C@@H]1NC(=O)[C@@H](NC(=O)[C@H](Cc2ccc(O)cc2)NC(=O)[C@H](CCC(C)C)NC(C)=O)CSSC[C@@H](C(=O)N[C@@H](Cc2c[nH]c3ccc(F)cc23)C(=O)N[C@@H](Cc2ccccc2)C(=O)N[C@H](C(=O)N[C@H](CCCCNC(=O)CN2CCN(CC(=O)O)CCN(CC(=O)O)CCN(CC(=O)O)CC2)C(N)=O)[C@@H](C)O)NC(=O)[C@H](Cc2ccc(O)cc2)NC(=O)[C@H](C(C)C)NC(=O)[C@H](CC(=O)O)NC(=O)[C@H](Cc2ccc(O)cc2)NC(=O)[C@H](CCCCN)NC(=O)CNC1=O` [compound 184, Ac-hLeu-Y-C-Nva-G-K-Y-D-V-Y-C-5FW-F-Thr-dLys(DOTA)-CONH2] (Ac-[hLeu]YC[Nva]GKYDVYC[Trp(5-F)]FT[dK](DOTA)-NH2; disulfide 3-11), the negative logarithm of the Kd (pKd) under setting [2] was 8.00 to 9.00.

For the compound `CC(=O)N[C@@H](CCC(C)C)C(=O)N[C@@H](Cc1ccc(O)cc1)C(=O)N[C@H]1CSSC[C@@H](C(=O)N[C@@H](Cc2c[nH]c3ccc(F)cc23)C(=O)N[C@@H](Cc2ccccc2)C(=O)N[C@H](C(=O)N[C@H](CCC(=O)O)C(N)=O)C(C)(C)O)NC(=O)[C@H](Cc2ccc(O)cc2)NC(=O)[C@H](C(C)C)NC(=O)[C@H](CC(=O)O)NC(=O)[C@H](CC2CCOCC2)NC(=O)[C@H](CC2CCN(C(=O)CCOCCOCCOCCOCCNC(=O)CN3CCN(CC(=O)O)CCN(CC(=O)O)CCN(CC(=O)O)CC3)CC2)NC(=O)CNC(=O)[C@H](C(C)(C)C)NC1=O` [compound 409, Ac-hLeu-Y-C-Tbg-G-Pip(PEG4-DOTA)Ala-ThpA-D-V-Y-C-5FW-F-hydroxyVal-dGlu-CONH2] (Ac-[hLeu]YC[Tle]G[Ala(piperidin-4-yl)]([PEG4-DOTA])[Ala(4-THP)]DVYC[Trp(5-F)]F[Val(3-OH)][dE]-NH2; disulfide 3-11), the negative logarithm of the Kd (pKd) under setting [1] is 8.00 to 9.00. `CC(=O)N[C@@H](CCC(C)C)C(=O)N[C@@H](Cc1ccc(O)cc1)C(=O)N[C@H]1CSSC[C@@H](C(=O)N[C@@H](Cc2c[nH]c3ccc(F)cc23)C(=O)N[C@@H](Cc2ccccc2)C(=O)N[C@H](C(=O)N[C@H](CCCCNC(=O)CN2CCN(CC(=O)O)CCN(CC(=O)O)CCN(CC(=O)O)CC2)C(N)=O)[C@@H](C)O)NC(=O)[C@H](Cc2ccc(O)cc2)NC(=O)[C@H](C2CCCCC2)NC(=O)[C@H](CC(=O)O)NC(=O)[C@H](Cc2ccc(O)cc2)NC(=O)[C@H](CCCCN)NC(=O)CNC(=O)[C@H](C(C)(C)C)NC1=O` [compound 181, Ac-hLeu-Y-C-Tbg-G-K-Y-D-Chg-Y-C-5FW-F-Thr-dLys(DOTA)-CONH2] (Ac-[hLeu]YC[Tle]GKYD[Chg]YC[Trp(5-F)]FT[dK](DOTA)-NH2; disulfide 3-11) showed a negative logarithm of the Kd (pKd) under setting [2] of 8.00 to 9.00. With `CC(=O)N[C@@H](CCC(C)C)C(=O)N[C@@H](Cc1ccc(O)cc1)C(=O)N[C@H]1CSSC[C@@H](C(=O)N[C@@H](Cc2cccc3ccccc23)C(=O)N[C@@H](Cc2ccccc2)C(=O)N2CCC[C@H]2C(=O)N[C@H](CCCCNC(=O)CN2CCN(CC(=O)O)CCN(CC(=O)O)CCN(CC(=O)O)CC2)C(N)=O)NC(=O)[C@H](Cc2ccc(O)cc2)NC(=O)[C@H](C(C)C)NC(=O)[C@H](CC(=O)O)NC(=O)[C@H](Cc2ccc(C(=O)O)cc2)NC(=O)[C@H](CC2CCNCC2)NC(=O)CNC(=O)[C@H](C(C)(C)C)NC1=O` [compound 315, Ac-hLeu-Y-C-Tbg-G-PipAla-4COOHPhe-D-V-Y-C-5FW-F-Pro-dLys(DOTA)-CONH2] (Ac-[hLeu]YC[Tle]G[Ala(piperidin-4-yl)][Phe(4-COOH)]DVYC[1Nal]FP[dK](DOTA)-NH2; disulfide 3-11), the negative-log Kd (pKd) under setting [1] was 8.00 to 9.00. `CC(=O)N[C@@H](CCC1CCCCC1)C(=O)N[C@@H](Cc1ccc(O)cc1)C(=O)N[C@H]1CSSC[C@@H](C(=O)N[C@@H](Cc2c[nH]c3ccc(F)cc23)C(=O)N[C@@H](Cc2ccccc2)C(=O)N[C@H](C(=O)N[C@H](CCCCNC(=O)CN2CCN(CC(=O)O)CCN(CC(=O)O)CCN(CC(=O)O)CC2)C(=O)O)C(C)(C)O)NC(=O)[C@H](Cc2ccc(O)cc2)NC(=O)[C@H](C(C)C)NC(=O)[C@H](CC(=O)O)NC(=O)[C@H](CC2CCOCC2)NC(=O)[C@H](CC2CCNCC2)NC(=O)CNC(=O)[C@H](C(C)(C)C)NC1=O` [compound 442, Ac-hCha-Y-C-Tbg-G-PipAla-ThpA-D-V-Y-C-5FW-F-hydroxyVal-dLys(DOTA)-COOH] (Ac-[hCha]YC[Tle]G[Ala(piperidin-4-yl)][Ala(4-THP)]DVYC[Trp(5-F)]F[Val(3-OH)][dK](DOTA)-OH; disulfide 3-11) showed a pKd under setting [1] above 9.00. Consider `CC(=O)N[C@@H](CCC(C)C)C(=O)N[C@@H](Cc1ccc(O)cc1)C(=O)N[C@H]1CSSC[C@@H](C(=O)N[C@@H](Cc2cccc3ccccc23)C(=O)N[C@@H](Cc2ccccc2)C(=O)N2CCCC[C@H]2C(=O)O)NC(=O)[C@H](Cc2ccc(O)cc2)NC(=O)[C@H](C(C)C)NC(=O)[C@H](CC(=O)O)NC(=O)[C@H](Cc2ccncc2)NC(=O)[C@H](CCCCNC(=O)CN2CCN(CC(=O)O)CCN(CC(=O)O)CCN(CC(=O)O)CC2)NC(=O)CNC(=O)[C@H](C(C)(C)C)NC1=O` [compound 265, Ac-hLeu-Y-C-Tbg-G-Lys(DOTA)-4PyA-D-V-Y-C-1Nal-F-Pip acid-CONH2] (Ac-[hLeu]YC[Tle]GK(DOTA)[4Pal]DVYC[1Nal]F[Pip]-OH; disulfide 3-11), for which the negative-log Kd (pKd) under setting [2] is 7.00 to 8.00. For the compound `CCCC[C@H](NC(C)=O)C(=O)N[C@@H](Cc1ccc(O)cc1)C(=O)N[C@H]1CSSC[C@@H](C(=O)N[C@@H](Cc2c[nH]c3ccccc23)C(=O)N[C@@H](Cc2ccccc2)C(=O)N[C@H](C(=O)N[C@H](CCCCNC(=O)CN2CCN(CC(=O)O)CCN(CC(=O)O)CCN(CC(=O)O)CC2)C(N)=O)[C@@H](C)O)NC(=O)[C@H](Cc2ccc(O)cc2)NC(=O)[C@H](C(C)C)NC(=O)[C@H](CC(=O)O)NC(=O)[C@H](Cc2ccc(O)cc2)NC(=O)[C@H](CCCCN)NC(=O)CNC(=O)[C@H](C2CCCCC2)NC1=O` [compound 54, Ac-Nle-Y-C-ChG-G-K-Y-D-V-Y-C-W-F-Thr-dLys(DOTA)-CONH2] (Ac-[Nle]YC[Chg]GKYDVYCWFT[dK](DOTA)-NH2; disulfide 3-11), the negative logarithm of the Kd (pKd) under setting [2] was 7.00 to 8.00.

For the compound `CC(C)CC[C@H](NC(N)=O)C(=O)N[C@@H](Cc1ccc(O)cc1)C(=O)N[C@H]1CSSC[C@@H](C(=O)N[C@@H](Cc2c[nH]c3ccc(F)cc23)C(=O)N[C@@H](Cc2ccccc2)C(=O)N[C@H](C(=O)N[C@H](CCCCNC(=O)CN2CCN(CC(=O)O)CCN(CC(=O)O)CCN(CC(=O)O)CC2)C(=O)O)C(C)(C)O)NC(=O)[C@H](Cc2ccc(O)cc2)NC(=O)[C@H](C(C)C)NC(=O)[C@H](CC(=O)O)NC(=O)[C@H](CC2CCOCC2)NC(=O)[C@H](CC2CCNCC2)NC(=O)CNC(=O)[C@H](C(C)(C)C)NC1=O` [Cpd #468, urea-hLeu-Y-C-Tbg-G-PipAla-ThpA-D-V-Y-C-5FW-F-hydroxyVal-dLys(DOTA)-COOH] (X14-YC[Tle]G[Ala(piperidin-4-yl)][Ala(4-THP)]DVYC[Trp(5-F)]F[Val(3-OH)][dK](DOTA)-OH; disulfide 2-10), the negative-log Kd (pKd) under setting [1] is above 9.00. `CC(=O)N[C@@H](CCC(C)C)C(=O)N[C@@H](Cc1ccc(O)cc1)C(=O)N[C@H]1CSSC[C@@H](C(=O)N[C@@H](Cc2cccc3ccccc23)C(=O)N[C@@H](Cc2ccccc2)C(=O)N2CCC[C@H]2C(=O)N[C@H](CCCCNC(=O)CC[C@H](NC(=O)CC[C@H](NC(=O)CC[C@H](NC(=O)CN2CCN(CC(=O)O)CCN(CC(=O)O)CCN(CC(=O)O)CC2)C(=O)O)C(=O)O)C(=O)O)C(N)=O)NC(=O)[C@H](Cc2ccc(O)cc2)NC(=O)[C@H](C(C)C)NC(=O)[C@H](CC(=O)O)NC(=O)[C@H](CC2CCCCC2)NC(=O)[C@H](CC2CCNCC2)NC(=O)CNC(=O)[C@H](C(C)(C)C)NC1=O` [compound 278, Ac-hLeu-Y-C-Tbg-G-PipAla-CHA-D-V-Y-C-1Nal-F-Pro-dLys(gE-gE-DOTA)-CONH2] (Ac-[hLeu]YC[Tle]G[Ala(piperidin-4-yl)][Cha]DVYC[1Nal]FP[dK]([γGlu-γGlu-γGlu-DOTA])-NH2; disulfide 3-11): the pKd under setting [2] was 8.00 to 9.00.
